Test results taken from patent publication US8980920B2, “Antiviral compounds of three linked aryl moieties to treat diseases such as hepatitis C” (Merck Sharp & Dohme Corp., priority 2009, dated 2015).

Key:
HCV replicon 1b c16 = assay: Cell-based HCV replicon assay, genotype 1b c16; conditions: Hepatitis C virus, 72 h; replicon cells, genotype 1b c16, replicon RNA by Taqman on day 3
Protocol: (§1) To measure cell-based anti-HCV activity of selected compounds of the present invention, the following replicon assay can be used.
Replicon cells are seeded at 5000 cells/well in 96-well collagen I-coated Nunc plates in the presence of the test compound. Various concentrations of test compound, typically in 10 serial 2-fold dilutions, are added to the assay mixture, with the starting concentration ranging from 10 μM to 0.001 μM. The final concentration of DMSO should be about 0.5%, and the final concentration of fetal bovine serum should be about 5%, in the assay media. Cells are harvested on day 3 by the addition of 1× cell lysis buffer (Ambion cat #8721). The replicon RNA level is then measured (using, for example, the real time PCR (Taqman assay)). The amplicon is located in 5B. The PCR primers are: 5B.2F, ATGGACAGGCGCCCTGA (SEQ ID NO. 1); 5B.2R, […] (SEQ ID NO. 2); the probe sequence is FAM-labeled CACGCCATGCGCTGCGG (SEQ ID NO. 3). GAPDH RNA is to be used as endogenous control and is amplified in the same reaction as NS5B (multiplex PCR) using the primers and the VIC-labeled probe recommended by the manufacturer (PE Applied Biosystems). The real-time RT-PCR reactions can be run on an ABI PRISM 7900HT Sequence Detection System using the following program: 48° C. for 30 minutes, 95° C. for 10 minutes, 40 cycles of 95° C. for 15 sec, 60° C. for 1 minute. The ΔCT values (CT5B-CTGAPDH) are then plotted against the concentration of test compound and fitted to the sigmoid dose-response model using XLfit4 (MDL). EC50 is defined as the concentration of inhibitor necessary to achieve ΔCT=1 over the projected baseline; EC90 is defined as the concentration necessary to achieve ΔCT=3.2 over the baseline. Alternatively, to quantitate the absolute amount of replicon RNA, a standard curve can be established by including serially diluted T7 transcripts of replicon RNA in the Taqman assay. […]
(§2) HCV replicon assay data was calculated for various genotypes for selected compounds of the present invention using this method and is provided in the table below.

HCV replicon 1a 1A7 = assay: Cell-based HCV replicon assay, genotype 1a 1A7; conditions: Hepatitis C virus, 72 h; replicon cells, genotype 1a 1A7, replicon RNA by Taqman on day 3
Protocol: as §1
(§3) Replicon cells are seeded at 5000 cells/well in 96-well collagen I-coated Nunc plates in the presence of the test compound. Various concentrations of test compound, typically in 10 serial 2-fold dilutions, are added to the assay mixture, with the starting concentration ranging from 10 μM to 0.001 μM. The final concentration of DMSO should be about 0.5%, and the final concentration of fetal bovine serum should be about 5%, in the assay media. Cells are harvested on day 3 by the addition of 1× cell lysis buffer (Ambion cat #8721). The replicon RNA level is then measured (using, for example, the real time PCR (Taqman assay)). The amplicon is located in 5B. The PCR primers are: 5B.2F, ATGGACAGGCGCCCTGA (SEQ ID NO. 1); 5B.2R, […] (SEQ ID NO. 2); the probe sequence is FAM-labeled CACGCCATGCGCTGCGG (SEQ ID NO. 3). […] Alternatively, to quantitate the absolute amount of replicon RNA, a standard curve can be established by including serially diluted T7 transcripts of replicon RNA in the Taqman assay. […]
as §2

HCV replicon 2a JFH = assay: Cell-based HCV replicon assay, genotype 2a JFH; conditions: Hepatitis C virus, 72 h, replicon cells, replicon RNA by Taqman on day 3
Protocol: as §1, §3, §2

HCV replicon 1b Y93H = assay: Cell-based HCV replicon assay, genotype 1b Y93H; conditions: Hepatitis C virus, 72 h, read-out: EC50 1b Y93H
Protocol: as §1, §3, §2

SMILES	EC50 (HCV replicon 1b c16)	EC50 (HCV replicon 1a 1A7)	EC50 (HCV replicon 2a JFH)	EC50 (HCV replicon 1b Y93H)
CC(C)(C)OC(=O)N1CCC[C@H]1c1ncc(-c2ccc(C#Cc3ccc4nc([C@@H]5CCCN5C(=O)OC(C)(C)C)[nH]c4c3)cc2)[nH]1 [Compound 58]	251 nM	–	–	–
COC(=O)N[C@@H](C(=O)N1CCC[C@@H]1c1ncc(-c2ccc(C#Cc3ccc4nc([C@@H]5CCCN5C(=O)[C@H](NC(=O)OC)c5ccccc5)[nH]c4c3)cc2)[nH]1)c1ccccc1 [Compound 57]	0.001 nM	0.41 nM	0.019 nM	0.5 nM
COC(=O)N[C@H](C(=O)N1CCC[C@@H]1c1ncc(-c2ccc(C#Cc3ccc4nc([C@@H]5CCCN5C(=O)[C@@H](NC(=O)OC)C(C)C)[nH]c4c3)cc2)[nH]1)C(C)C [Compound 56]	0.016 nM	0.3 nM	0.3 nM	5 nM
